Measured values published in patent US20190119298A1, “FUSED 3-PHENYLTETRAMIC ACID DERIVATIVES HAVING HERBICIDAL ACTION” (Bayer CropScience Aktiengesellschaft, priority 2016, published 2019).

Assays:
Format in all cases: in vivo
[1] = test system: Alopecurus myosuroides; test: Pre-emergence herbicidal effect; settings: 320 g/ha, scored visually after 3 weeks vs untreated controls, 100% = plants have died
Summary of the method: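 Seeds sown in sandy loam and covered; WP- or EC-formulated compounds sprayed onto covering soil at 600–800 L/ha water with 0.2% wetting agent. Greenhouse-grown; damage scored visually after 3 weeks versus untreated controls (100% = plants died, 0% = like control).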

[2] = test system: Avena fatua; test: Pre-emergence herbicidal effect; settings: 320 g/ha, scored visually after 3 weeks vs untreated controls, 100% = plants have died
Summary of the method: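 Weed and crop seeds sown in sandy loam were treated pre-emergence on the soil surface with WP or EC formulations at a water rate of 600 to 800 L/ha plus 0.2% wetting agent. Plants grown in a greenhouse; damage scored visually after 3 weeks as percent activity relative to untreated controls (100% = dead).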

[3] = test system: Echinochloa crus-galli; test: Pre-emergence herbicidal effect; settings: 320 g/ha, scored visually after 3 weeks vs untreated controls, 100% = plants have died
Summary of the method: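 Wettable powder or emulsion concentrate sprayed onto soil covering freshly sown seeds in sandy loam, 600 to 800 L/ha water with 0.2% wetting agent. Pots kept in greenhouse. Damage scored visually after 3 weeks against untreated controls, 0-100% activity.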

[4] = test system: Lolium multiflorum; test: Pre-emergence herbicidal effect; settings: 320 g/ha, scored visually after 3 weeks vs untreated controls, 100% = plants have died
Summary of the method: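 Seeds sown in sandy loam and covered; compounds as WP or EC applied to the soil surface pre-emergence at 600 to 800 L/ha water with 0.2% wetting agent. Greenhouse growth for 3 weeks, then damage scored visually versus untreated controls (100% = plants dead, 0% = like control).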

[5] = test system: Setaria viridis; test: Pre-emergence herbicidal effect; settings: 320 g/ha, scored visually after 3 weeks vs untreated controls, 100% = plants have died
Summary of the method: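 Pre-emergence: WP or EC formulations sprayed onto the soil surface over sown seeds in sandy loam at 600–800 L/ha water with 0.2% wetting agent. Plants kept in a greenhouse; damage scored visually after 3 weeks as % activity versus untreated controls (100% = dead).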

[6] = test system: Alopecurus myosuroides; test: Post-emergence herbicidal effect; settings: one-leaf stage, 320 g/ha, assessed visually after about 3 weeks, 100% = plants have died
Procedure: (§1) ALOMY: Alopecurus myosuroides Seeds of monocotyledonous and dicotyledonous weed and crop plants are laid out in sandy loam soil in wood-fibre pots, covered with soil and cultivated in a greenhouse under good growth conditions. 2 to 3 weeks after sowing, the test plants are treated at the one-leaf stage. The compounds of the invention, formulated in the form of wettable powders (WP) or as emulsion concentrates (EC), are then sprayed onto the green parts of the plants as aqueous suspension or emulsion at a water application rate equating to 600 to 800 L/ha with addition of 0.2% wetting agent. After the test plants have been left to stand in the greenhouse under optimal growth conditions for about 3 weeks, the action of the preparations is assessed visually in comparison to untreated controls (herbicidal action in percent (%): 100% activity=the plants have died, 0% activity=like control plants).

[7] = test system: Avena fatua; test: Post-emergence herbicidal effect; settings: one-leaf stage, 320 g/ha, assessed visually after about 3 weeks, 100% = plants have died
Procedure: as §1, with “AVEFA: Avena fatua” for “ALOMY: Alopecurus myosuroides”

[8] = test system: Echinochloa crus-galli; test: Post-emergence herbicidal effect; settings: one-leaf stage, 320 g/ha, assessed visually after about 3 weeks, 100% = plants have died
Summary of the method: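 Greenhouse plants in sandy loam were sprayed at the one-leaf stage with WP or EC formulations at 600 to 800 L/ha water with 0.2% wetting agent. After about 3 weeks, damage was scored visually in % against untreated controls (100% = dead).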

[9] = test system: Lolium multiflorum; test: Post-emergence herbicidal effect; settings: one-leaf stage, 320 g/ha, assessed visually after about 3 weeks, 100% = plants have died
Procedure: as §1, with “LOLMU: Lolium multiflorum” for “ALOMY: Alopecurus myosuroides”

[10] = test system: Setaria viridis; test: Post-emergence herbicidal effect; settings: one-leaf stage, 320 g/ha, assessed visually after about 3 weeks, 100% = plants have died
Summary of the method: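 Greenhouse plants grown in sandy loam were sprayed at the one-leaf stage, 2-3 weeks after sowing. Compounds were applied as WP or EC formulations in 600-800 L/ha water plus 0.2% wetting agent. About 3 weeks later, damage was scored visually against untreated controls (0% = like control, 100% = dead plants).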

## CCc1cc(Cl)cc(OC)c1C1=C(OC(=O)C(C)(C)C)C2CCOCCN2C1=O (centres unmarked) [Ib-1-18]
[1]
  Pre-emergence action ALOMY (herbicidal activity in percent): 100%
[2]
  Pre-emergence action AVEFA (herbicidal activity in percent): 100%
[3]
  Pre-emergence action ECHCG (herbicidal activity in percent): 100%
[4]
  Pre-emergence action LOLMU (herbicidal activity in percent): 100%
[5]
  Pre-emergence action SETVI (herbicidal activity in percent): 100%
[6]
  Post-emergence effectiveness ALOMY (herbicidal action in percent): 100%
[7]
  Post-emergence effectiveness AVEFA (herbicidal action in percent): 100%
[8]
  Post-emergence effectiveness ECHCG (herbicidal action in percent): 100%
[9]
  Post-emergence effectiveness LOLMU (herbicidal action in percent): 100%
[10]
  Post-emergence effectiveness SETVI (herbicidal action in percent): 100%

## Cc1cc(C)c(C2=C(O)C3CCOCCN3C2=O)c(C)c1 (centres unmarked) [Ia-1-1]
[1]
  Pre-emergence action ALOMY (herbicidal activity in percent): 100%
[2]
  Pre-emergence action AVEFA (herbicidal activity in percent): 100%
[3]
  Pre-emergence action ECHCG (herbicidal activity in percent): 100%
[4]
  Pre-emergence action LOLMU (herbicidal activity in percent): 100%
[5]
  Pre-emergence action SETVI (herbicidal activity in percent): 90%
[6]
  Post-emergence effectiveness ALOMY (herbicidal action in percent): 100%
[7]
  Post-emergence effectiveness AVEFA (herbicidal action in percent): 100%
[8]
  Post-emergence effectiveness ECHCG (herbicidal action in percent): 100%
[9]
  Post-emergence effectiveness LOLMU (herbicidal action in percent): 100%
[10]
  Post-emergence effectiveness SETVI (herbicidal action in percent): 100%

## CCc1cccc(C)c1C1=C(O)C2CCOCCN2C1=O (centres unmarked) [Ia-1-4]
[1]
  Pre-emergence action ALOMY (herbicidal activity in percent): 80%
[2]
  Pre-emergence action AVEFA (herbicidal activity in percent): 100%
[3]
  Pre-emergence action ECHCG (herbicidal activity in percent): 100%
[4]
  Pre-emergence action LOLMU (herbicidal activity in percent): 100%
[5]
  Pre-emergence action SETVI (herbicidal activity in percent): 100%
[6]
  Post-emergence effectiveness ALOMY (herbicidal action in percent): 100%
[7]
  Post-emergence effectiveness AVEFA (herbicidal action in percent): 100%
[8]
  Post-emergence effectiveness ECHCG (herbicidal action in percent): 100%
[9]
  Post-emergence effectiveness LOLMU (herbicidal action in percent): 100%
[10]
  Post-emergence effectiveness SETVI (herbicidal action in percent): 100%

## CCc1cc(C)cc(C)c1C1=C(OC(C)=O)C2CCOCCN2C1=O (centres unmarked) [Ib-1-9]
[1]
  Pre-emergence action ALOMY (herbicidal activity in percent): 100%
[2]
  Pre-emergence action AVEFA (herbicidal activity in percent): 100%
[3]
  Pre-emergence action ECHCG (herbicidal activity in percent): 100%
[4]
  Pre-emergence action LOLMU (herbicidal activity in percent): 100%
[5]
  Pre-emergence action SETVI (herbicidal activity in percent): 100%
[6]
  Post-emergence effectiveness ALOMY (herbicidal action in percent): 100%
[7]
  Post-emergence effectiveness AVEFA (herbicidal action in percent): 100%
[8]
  Post-emergence effectiveness ECHCG (herbicidal action in percent): 100%
[9]
  Post-emergence effectiveness LOLMU (herbicidal action in percent): 100%
[10]
  Post-emergence effectiveness SETVI (herbicidal action in percent): 100%

## CCc1cc(C)cc(CC)c1C1=C(OC(=O)OC)C2CCOCCN2C1=O (centres unmarked) [Example Ib-1-1, 8-(2,6-Diethyl-4-methylphenyl)-7-oxo-1,2,4,5,7,9a-hexahydropyrrolo[1,2-d][1,4]oxazepin-9-yl methyl carbonate]
[1]
  Pre-emergence action ALOMY (herbicidal activity in percent): 100%
[2]
  Pre-emergence action AVEFA (herbicidal activity in percent): 100%
[3]
  Pre-emergence action ECHCG (herbicidal activity in percent): 100%
[4]
  Pre-emergence action LOLMU (herbicidal activity in percent): 100%
[5]
  Pre-emergence action SETVI (herbicidal activity in percent): 100%
[6]
  Post-emergence effectiveness ALOMY (herbicidal action in percent): 100%
[7]
  Post-emergence effectiveness AVEFA (herbicidal action in percent): 100%
[8]
  Post-emergence effectiveness ECHCG (herbicidal action in percent): 100%
[9]
  Post-emergence effectiveness LOLMU (herbicidal action in percent): 100%
[10]
  Post-emergence effectiveness SETVI (herbicidal action in percent): 100%

## CCc1cc(C)cc(CC)c1C1=C(O)C2CCOCCN2C1=O (centres unmarked) [Example Ia-1-3, 8-(2,6-Diethyl-4-methylphenyl)-9-hydroxy-1,4,5,9a-tetrahydropyrrolo[1,2-d][1,4]oxazepin-7(2H)-one]
[1]
  Pre-emergence action ALOMY (herbicidal activity in percent): 100%
[2]
  Pre-emergence action AVEFA (herbicidal activity in percent): 100%
[3]
  Pre-emergence action ECHCG (herbicidal activity in percent): 100%
[4]
  Pre-emergence action LOLMU (herbicidal activity in percent): 100%
[5]
  Pre-emergence action SETVI (herbicidal activity in percent): 100%
[6]
  Post-emergence effectiveness ALOMY (herbicidal action in percent): 100%
[7]
  Post-emergence effectiveness AVEFA (herbicidal action in percent): 100%
[8]
  Post-emergence effectiveness ECHCG (herbicidal action in percent): 100%
[9]
  Post-emergence effectiveness LOLMU (herbicidal action in percent): 100%
[10]
  Post-emergence effectiveness SETVI (herbicidal action in percent): 100%

## CCc1cc(C)cc(CC)c1C1=C(OC(C)=O)C2CCOCCN2C1=O (centres unmarked) [Ib-1-4]
[1]
  Pre-emergence action ALOMY (herbicidal activity in percent): 100%
[2]
  Pre-emergence action AVEFA (herbicidal activity in percent): 100%
[3]
  Pre-emergence action ECHCG (herbicidal activity in percent): 100%
[4]
  Pre-emergence action LOLMU (herbicidal activity in percent): 100%
[5]
  Pre-emergence action SETVI (herbicidal activity in percent): 100%
[6]
  Post-emergence effectiveness ALOMY (herbicidal action in percent): 100%
[7]
  Post-emergence effectiveness AVEFA (herbicidal action in percent): 100%
[8]
  Post-emergence effectiveness ECHCG (herbicidal action in percent): 100%
[9]
  Post-emergence effectiveness LOLMU (herbicidal action in percent): 100%
[10]
  Post-emergence effectiveness SETVI (herbicidal action in percent): 100%

## CCc1cc(C)cc(CC)c1C1=C(O)C2COCCCN2C1=O (racemic) [Ia-2-2]
[1]
  Pre-emergence action ALOMY (herbicidal activity in percent): 80%
[2]
  Pre-emergence action AVEFA (herbicidal activity in percent): 90%
[3]
  Pre-emergence action ECHCG (herbicidal activity in percent): 100%
[4]
  Pre-emergence action LOLMU (herbicidal activity in percent): 100%
[5]
  Pre-emergence action SETVI (herbicidal activity in percent): 100%
[6]
  Post-emergence effectiveness ALOMY (herbicidal action in percent): 100%
[7]
  Post-emergence effectiveness AVEFA (herbicidal action in percent): 100%
[8]
  Post-emergence effectiveness ECHCG (herbicidal action in percent): 100%
[9]
  Post-emergence effectiveness LOLMU (herbicidal action in percent): 100%
[10]
  Post-emergence effectiveness SETVI (herbicidal action in percent): 100%
